Target: T1, aryl hydrocarbon receptor (Rattus norvegicus, UniProt P41738, Q794H)
T1 construct: The SD-line rat AhR gene-coding region was amplified from the reverse-transcribed sample by means of PCR; V5-His (C-terminal tag of vector pcDNA4/V5-His B); expressed in transfected cells; host or cells: mouse neuroblastoma Neuro2a, transient transfection with LIPOFECTAMINE 2000
T1 sequence (P41738 10-853 Q794H): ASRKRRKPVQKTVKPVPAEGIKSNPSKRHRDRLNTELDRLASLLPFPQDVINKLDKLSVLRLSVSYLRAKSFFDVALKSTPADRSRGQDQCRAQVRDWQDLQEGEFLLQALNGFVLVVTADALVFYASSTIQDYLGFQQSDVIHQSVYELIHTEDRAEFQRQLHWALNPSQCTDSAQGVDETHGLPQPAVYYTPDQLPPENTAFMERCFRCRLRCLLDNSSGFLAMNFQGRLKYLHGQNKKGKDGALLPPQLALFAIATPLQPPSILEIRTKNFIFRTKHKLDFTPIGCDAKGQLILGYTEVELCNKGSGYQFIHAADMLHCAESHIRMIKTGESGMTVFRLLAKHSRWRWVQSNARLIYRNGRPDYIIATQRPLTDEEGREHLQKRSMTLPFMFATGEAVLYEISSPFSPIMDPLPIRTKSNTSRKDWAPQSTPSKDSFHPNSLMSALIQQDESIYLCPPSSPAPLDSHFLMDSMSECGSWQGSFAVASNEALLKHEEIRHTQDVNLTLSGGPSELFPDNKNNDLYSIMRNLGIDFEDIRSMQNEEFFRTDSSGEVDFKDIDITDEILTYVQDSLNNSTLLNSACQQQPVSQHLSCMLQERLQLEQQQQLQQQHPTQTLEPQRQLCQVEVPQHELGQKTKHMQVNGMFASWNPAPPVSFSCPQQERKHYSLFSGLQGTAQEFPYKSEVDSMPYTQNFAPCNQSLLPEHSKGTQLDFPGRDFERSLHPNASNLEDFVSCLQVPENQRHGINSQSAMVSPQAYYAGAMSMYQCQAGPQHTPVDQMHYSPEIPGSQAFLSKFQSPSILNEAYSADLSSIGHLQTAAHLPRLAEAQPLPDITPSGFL
Assay: Reporter gene assay in Neuro2a with vectors having TH transcriptional regulatory regions different in length
Type: cell-based, SD-line rat
Conditions: 10 nM TCDD
Protocol: Shorter fragments of TH transcriptional regulatory region (i.e., 2.0 kbp, 1.5 kbp, 1.0 kbp and 500 bp of fragments) were prepared by PCR using the 2.5 kbp of the TH transcriptional regulatory region incorporated into PGV-THp25 as a template. The following different forward primers were used for each fragment: 2.0-kbp fragment:
As the reverse primer, a common primer (5′-[…]-3′ (SEQ ID No: 17)) was used. Recognition sequence for a restriction enzyme KpnI was added to the terminal of each forward primer, and recognition sequence for a restriction enzyme NheI was added to the terminal of the reverse primer, in order to facilitate incorporation of the PCR amplification fragments into the vector. Pyrobest DNA polymerase (Takara Bio Inc.) was used in the PCR. The amplified TH transcriptional regulatory region fragments were digested with restriction enzymes KpnI and NheI, and subjected to electrophoresis on agarose. The corresponding bands were purified with a QIAQUICK Gel Extraction Kit (manufactured by Qiagen) and incorporated into PGV-B2 vector (TOYO B-NET) previously digested with KpnI and NheI.
These vectors were introduced into Neuro2a by a method similar to Example 3. The obtained cell was exposed to 10 nM TCDD, and the change in the expression amount of the reporter gene was examined in the cell (FIG. 3).
For narrowing down the region involved in transcriptional regulation by the test substance, shorter fragments of the transcriptional regulatory region (i.e., 400 bp, 300 bp, 200 bp and 100 bp of fragments) were prepared by PCR using the 500 bp of the TH transcriptional regulatory region as a template. The following forward primers were used for each fragment.
As the reverse primer, a common primer (5′-[…]-3′ (SEQ ID No: 17)) was used. Recognition sequence for a restriction enzyme KpnI was added to the terminal of each forward primer, and recognition sequence for a restriction enzyme NheI was added to the terminal of the reverse primer. The DNA fragments were amplified by using Pyrobest DNA polymerase (Takara Bio Inc.). […]

Clc1cc2c(cc1Cl)Oc1cc(Cl)c(Cl)cc1O2 [TCDD, 2,3,7,8-tetrachlorodibenzo-p-dioxine]
change in the expression amount of the reporter gene (response) (all vectors with TH transcriptional regulatory regions of 2.5 kbp to 500 bp): there was a response to TCDD
change in the expression amount of the reporter gene (response) (vectors with TH transcriptional regulatory region of 500 bp, 400 bp or 300 bp): there was a response to TCDD
change in the expression amount of the reporter gene (response) (vectors with region of 200 bp or 100 bp): no response to TCDD
